Patent US12129237B2, “Substituted diaminocarboxamide and diaminocarbonitrile pyrimidines, compositions thereof, and methods of treatment therewith” (SIGNAL PHARMACEUTICALS, LLC, priority 2011, dated 2024)

Molecular target: T1, JNK1 (Homo sapiens, UniProt P45983)
T1 construct: purchased Carna Biosciences
Assay: JNK1 biochemical assays (one or more of: time resolved fluorescence, Z'-LYTE Cascade, radioactive)
Settings: Table 2; JNK1 IC50 activity level; read-out: Act. Level
Description: JNK1 Assay. A 384-well time resolved fluorescence assay was used to monitor JNK1 activity. The JNK1 assay was run in the following assay buffer: 50 mM HEPES, 10 mM MgCl2, 1 mM EGTA, 2 mM DTT, and 0.01% Tween 20. To initiate the reaction 100 nM of ULight™-labeled 4EBP1 peptide (Perkin-Elmer) and 5 μM of ATP were mixed with 500 pM of JNK1 (Carna Biosciences), for a total assay volume of 20 μL in each well. The assay was incubated at room temperature for 1 h and terminated using a mixture of 30 mM EDTA and 4 nM Eu-anti-4EBP1, by adding 20 μL of stop solution to each well. Plates were read on a Perkin-Elmer Envision Reader.
JNK1 Assay. The JNK1 Z′-LYTE® Cascade kinase assay was run in the following buffer: 50 mM HEPES at pH 7.5, 0.01% BRIJ-35, 10 mM MgCl2, 1 mM EGTA, and 1 mM DTT. […] The assay was incubated at room temperature for 1 h. […] The data was then read on a fluorescence plate reader and analyzed.
JNK1 assay. The radioactive JNK kinase assay was carried out in a 96-well plate format at a final volume of 100 μL. […] JNK1 was diluted in the following dilution buffer (20 mM HEPES pH 7.6, 0.1 mM EDTA, 2.5 mM MgCl2, 0.004% (w/v) Triton X100, 2 μg/ml Leupeptin, 20 mM B-glycerol phosphate, 0.1 mM Na3VO4 dithiothreitol) and then pre-mixed with cJun diluted in the substrate solution buffer (20 mM HEPES pH 7.6, 50 mM NaCl, 0.1 mM EDTA, 2.5 mM MgCl2, 0.05% (w/v) Triton X100). […] The enzyme, substrate and inhibitor mixture was allowed to equilibrate at room temperature for 15 minutes. The reaction was started by the addition of 10 μL of 10×ATP in kinase buffer (130 mM MgCl2, 6 mM dithiothreitol, 150 mM para-nitrophenyl phosphate, 100 μCi/ml γ-[^33P]-ATP). Reactions were allowed to proceed for 60 minutes before precipitation of protein via trichloroacetic acid (7.2% TCA final). […] The precipitate was washed with Phosphate Buffered Saline and the amount of phosphate incorporated into cJun was quantified by scintillation counting using a Packard Topcount-NXT. All assays were conducted under conditions where phosphate incorporation was linear with respect to time and enzyme concentration.

T1 sequence (P45983 whole entry): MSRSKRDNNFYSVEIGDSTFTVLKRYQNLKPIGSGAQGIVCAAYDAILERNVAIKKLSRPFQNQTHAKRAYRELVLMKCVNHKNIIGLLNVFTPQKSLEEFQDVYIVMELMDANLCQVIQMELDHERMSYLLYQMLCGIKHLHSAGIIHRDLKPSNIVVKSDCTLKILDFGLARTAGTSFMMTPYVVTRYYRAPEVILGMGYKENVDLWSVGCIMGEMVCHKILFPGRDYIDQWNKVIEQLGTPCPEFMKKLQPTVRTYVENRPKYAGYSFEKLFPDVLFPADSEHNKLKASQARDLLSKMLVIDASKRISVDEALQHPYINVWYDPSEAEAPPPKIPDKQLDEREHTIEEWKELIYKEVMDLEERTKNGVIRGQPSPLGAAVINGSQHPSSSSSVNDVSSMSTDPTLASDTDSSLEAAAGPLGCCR

| IC50 [nM] | SMILES |
| --- | --- |
| 200 to 800 | CC1(C)CCC(Nc2ncc(C(N)=O)c(N[C@@H]3CCC[C@H](O)C3)n2)c2ccccc21 (stereo partly drawn) [Example B-99, 2-(4,4-dimethyl-1,2,3,4-tetrahydronaphthalen-1-ylamino)-4-((1R,3S)-3-hydroxycyclohexylamino)pyrimidine-5-carboxamide] |
| 200 to 800 | NC(=O)c1cnc(NC2CCc3ccccc32)nc1Nc1ccccc1 (stereo not shown) [Example B-31, 2-(2,3-dihydro-1H-inden-1-ylamino)-4-(phenylamino)pyrimidine-5-carboxamide] |
| < 200 | CC(=O)N[C@H]1CC[C@H](Nc2ncc(C(N)=O)c(Nc3ccccc3)n2)CC1 [Example B-6, 2-((1r,4r)-4-acetamidocyclohexylamino)-4-(phenylamino)pyrimidine-5-carboxamide] |
| < 200 | C[C@@H]1CC[C@@H](Nc2nc(N[C@H]3CCc4ncccc4C3)ncc2C(N)=O)C[C@H]1O [Example B-93, 4-((1R,3R,4R)-3-hydroxy-4-methylcyclohexylamino)-2-((S)-5,6,7,8-tetrahydroquinolin-6-ylamino)pyrimidine-5-carboxamide] |
| 200 to 800 | COc1ccccc1CNc1ncc(C(N)=O)c(Nc2ccccc2)n1 [Example B-60, 2-(2-methoxybenzylamino)-4-(phenylamino)pyrimidine-5-carboxamide] |
| < 200 | NC(=O)c1cnc(N[C@H]2CCc3ncccc3C2)nc1N[C@@H]1CCC[C@H](O)C1 [Example B-77, 4-((1R,3S)-3-hydroxycyclohexylamino)-2-((S)-5,6,7,8-tetrahydroquinolin-6-ylamino)pyrimidine-5-carboxamid] |

Same assay, conditions: Table 3; JNK1 IC50 activity level; read-out: Act. Level

| IC50 [nM] | SMILES |
| --- | --- |
| 200 to 800 | N#Cc1cnc(NC2CCOCC2)nc1N[C@@H]1CCC[C@H](O)C1 [Example C-5, 4-((1R,3S)-3-hydroxycyclohexylamino)-2-(tetrahydro-2H-pyran-4-ylamino)pyrimidine-5-carbonitrile] |
| < 200 | CO[C@H]1CC[C@H](Nc2ncc(C#N)c(N[C@@H]3CCCC[C@@H](O)C3)n2)CC1 [Example C-42, 4-((1R,3R)-3-hydroxycycloheptylamino)-2-((1r,4R)-4-methoxycyclohexylamino) pyrimidine-5-carbonitrile] |
| < 200 | CC(C)(C)Nc1ncc(C#N)c(N[C@@H]2CCCC[C@H](O)C2)n1 [Example C-38, 2-(tert-butylamino)-4-((1R,3S)-3-hydroxycycloheptylamino) pyrimidine-5-carbonitrile] |
| < 200 | CO[C@H]1CC[C@H](Nc2ncc(C#N)c(N[C@@H]3CCCC[C@@](C)(O)C3)n2)CC1 [Example C-53, 4-((1R,3R)-3-hydroxy-3-methylcycloheptylamino)-2-((1r,4R)-4-methoxycyclohexylamino) pyrmidine-5-carbonitrile] |
| < 200 | CC(=O)N[C@H]1CC[C@H](Nc2ncc(C#N)c(N[C@@H]3CCC[C@H](O)C3)n2)CC1 [Example C-13, N-((1R,4r)-4-(5-cyano-4-((1R,3S)-3-hydroxycyclohexylamino)pyrimidin-2-ylamino)cyclohexyl)acetamide] |

Same assay, conditions: one or more of the JNK1 biochemical assays; read-out: Act. Level (JNK1 IC50 activity level)

| IC50 [nM] | SMILES |
| --- | --- |
| < 200 | C[C@@H](Nc1nc(NC2CCOCC2)ncc1C(N)=O)C1CC1 [Example 424, (R)-4-(1-cyclopropylethylamino)-2-(tetrahydro-2H-pyran-4-ylamino)pyrimidine-5-carboxamide] |
| < 200 | CN(C)C(=O)[C@H]1CC[C@H](Nc2ncc(C(N)=O)c(NC3(C)CCC3)n2)CC1 [Example 414, 2-((1r,4r)-4-(dimethylcarbamoyl)cyclohexylamino)-4-(1-methylcyclobutylamino)pyrimidine-5-carboxamide] |
| < 200 | C[C@H](Nc1nc(N[C@H]2CC[C@H](O)CC2)ncc1C(N)=O)C1CCC1 [Example 297, 4-((S)-1-cyclobutylethylamino)-2-((1r,4S)-4-hydroxycyclohexylamino)pyrimidine-5-carboxamide] |
| < 200 | NC(=O)c1cnc(NC2CCOCC2)nc1N[C@@H]1CCC[C@H]1CO [Example 328, 4-((1R,2R)-2-(hydroxymethyl)cyclopentylamino)-2-(tetrahydro-2H-pyran-4-ylamino)pyrimidine-5-carboxamide] |
| < 200 | CC[C@H](C)Nc1ncc(C(N)=O)c(N[C@@H]2CC[C@@H](C)[C@H](O)C2)n1 [Example 398, 2-(sec-butylamino)-4-((1R,3R,4R)-3-hydroxy-4-methylcyclohexylamino)pyrimidine-5-carboxamide] |
| < 200 | NC(=O)c1cnc(NC23CCC(O)(CC2)CC3)nc1NC12CC(C1)C2 [Example 417, 4-(bicyclo[1.1.1]pentan-1-ylamino)-2-(4-hydroxybicyclo[2.2.2]octan-1-ylamino)pyrimidine-5-carboxamide] |
| < 200 | CO[C@H]1CC[C@H](Nc2ncc(C(N)=O)c(NC(C)(C)CO)n2)CC1 [Example 310, 4-(1-hydroxy-2-methylpropan-2-ylamino)-2-((1r,4r)-4-methoxycyclohexylamino)pyrimidine-5-carboxamide] |
| < 200 | NC(=O)c1cnc(N[C@H]2CC[C@H](OC3CC3)CC2)nc1NC1CCC1 [Example 434, 4-(cyclobutylamino)-2-((1r,4r)-4-cyclopropoxycyclohexylamino)pyrimidine-5-carboxamide] |
| < 200 | CC(C)[C@@H](C)Nc1nc(N[C@H]2CC[C@H](O)CC2)ncc1C(N)=O [Example 292, 2-((1r,4R)-4-hydroxycyclohexylamino)-4-((R)-3-methylbutan-2-ylamino)pyrimidine-5-carboxamide] |
| < 200 | CC1(Nc2ncc(C(N)=O)c(N[C@@H]3CCC[C@H](O)C3)n2)CCC1 [Example 354, 4-((1R,3S)-3-hydroxycyclohexylamino)-2-(1-methylcyclobutylamino)pyrimidine-5-carboxamide] |
| < 200 | CO[C@H]1CC[C@H](Nc2ncc(C(N)=O)c(NC3(C)CCCC3)n2)CC1 [Example 473] |
| < 200 | CO[C@H]1CC[C@H](Nc2ncc(C(N)=O)c(NC3CCC3C)n2)CC1 (stereo partly shown) [Example 255, 2-((1r,4r)-4-methoxycyclohexylamino)-4-(2-methylcyclobutylamino)pyrimidine-5-carboxamide] |
| < 200 | CC1(Nc2nc(N[C@H]3CCCOC3)ncc2C(N)=O)CCC1 [Example 403, (S)-4-(1-methylcyclobutylamino)-2-(tetrahydro-2H-pyran-3-ylamino)pyrimidine-5-carboxamide] |
| < 200 | C[C@]1(O)CCC[C@@H](Nc2nc(NC34CC(C3)C4)ncc2C(N)=O)C1 [Example 347, 2-(bicyclo[1.1.1]pentan-1-ylamino)-4-((1R,3S)-3-hydroxy-3-methylcyclohexylamino)pyrimidine-5-carboxamide] |
| < 200 | C[C@H]1C[C@H](Nc2nc(N[C@H]3CC[C@H](O)CC3)ncc2C(N)=O)C1 [Example 325, 2-((1r,4r)-4-hydroxycyclohexylamino)-4-((1r,3r)-3-methylcyclobutylamino)pyrimidine-5-carboxamide] |
| < 200 | CC(C)CCNc1nc(N[C@H]2CC[C@H](O)CC2)ncc1C(N)=O [Example 220, 2-((1r,4r)-4-hydroxycyclohexylamino)-4-(isopentylamino)pyrimidine-5-carboxamide] |
| < 200 | CC(C)(Nc1nc(N[C@H]2CC[C@H](OCC(F)(F)F)CC2)ncc1C(N)=O)C1CC1 [Example 482, 4-(2-cyclopropylpropan-2-ylamino)-2-((1r,4r)-4-(2,2,2-trifluoroethoxy)cyclohexylamino)pyrimidine-5-carboxamide] |

Same assay, conditions: tested in one or more of the JNK1 biochemical assays; read-out: Act. Level (JNK1 biochemical assay IC50 activity level)

| IC50 [nM] | SMILES |
| --- | --- |
| < 200 | NC(=O)c1cnc(N[C@H]2CC[C@H](OCC(F)(F)F)CC2)nc1N[C@@H]1CCCC[C@H](O)C1 [Example A-160, 4-((1R,3S)-3-hydroxycycloheptylamino)-2-((1r,4R)-4-(2,2,2-trifluoroethoxy)cyclohexylamino)pyrimidine-5-carboxamid] |
| 200 to 800 | CCO[C@H]1CC[C@H](Nc2ncc(C(N)=O)c(N[C@H]3CCC[C@H]3O)n2)CC1 [Example A-63, 2-((1r,4S)-4-ethoxycyclohexylamino)-4-((1S,2R)-2-hydroxycyclopentylamino)pyrimidine-5-carboxamide] |
| < 200 | NC(=O)c1cnc(NC2CCC(F)(F)CC2)nc1N[C@@H]1CCCC[C@H](O)C1 [Example A-192, 2-(4,4-difluorocyclohexylamino)-4-((1R,3S)-3-hydroxycycloheptylamino)pyrimidine-5-carboxamide] |
| < 200 | CCO[C@H]1CC[C@H](Nc2ncc(C(N)=O)c(N[C@H]3CCCC[C@@H]3O)n2)CC1 [Example A-77, 2-((1r,4S)-4-ethoxycyclohexylamino)-4-((1S,2S)-2-hydroxycyclohexylamino)pyrimidine-5-carboxamide] |
| < 200 | CC(=O)N[C@H]1CC[C@H](Nc2ncc(C(N)=O)c(N[C@@H]3CCC[C@H](O)C3)n2)CC1 [Example A-39, 2-((1r,4R)-4-acetamidocyclohexylamino)-4-((1R,3S)-3-hydroxycyclohexylamino)pyrimidine-5-carboxamide] |
| < 200 | NC(=O)c1cnc(N[C@H]2CC[C@H](OCC(F)(F)F)CC2)nc1N[C@@H]1CCC[C@H]1O [Example A-156, 4-((1R,2R)-2-hydroxycyclopentylamino)-2-((1r,4R)-4-(2,2,2-trifluoroethoxy)cyclohexylamino)pyrimidine-5-carboxamid] |
| < 200 | CC(C)Nc1nc(N[C@H]2CC[C@H](C(C)(C)O)CC2)ncc1C(N)=O [Example A-6, 2-((1r,4r)-4-(2-hydroxypropan-2-yl)cyclohexylamino)-4-(isopropylamino)pyrimidine-5-carboxamide] |
| < 200 | CCO[C@H]1CC[C@H](Nc2ncc(C(N)=O)c(N[C@H]3CCC[C@@H](O)C3)n2)CC1 [Example A-59, 2-((1r,4S)-4-ethoxycyclohexylamino)-4-((1S,3R)-3-hydroxycyclohexylamino)pyrimidine-5-carboxamide] |
| < 200 | C[C@]1(O)CC[C@H](Nc2ncc(C(N)=O)c(N[C@@H]3CCC[C@H](O)C3)n2)CC1 [Example A-22, 2-((1r,4R)-4-hydroxy-4-methylcyclohexylamino)-4-((1R,3S)-3-hydroxycyclohexylamino)pyrimidine-5-carboxamide] |
